Article PMC6270602 (Molecules, 2013)
Where a name gives a salt, the structure may show the parent alone. Read-outs that look alike come from different tables or passages of the source.

Experiments:
[1] = molecular target: human recombinant AChE (hAChE; E.C. 3.1.1.7) (Homo sapiens, UniProt P22303); experiment: biochemical; conditions: for IC50: human recombinant AChE, Ellman's method, phosphate buffer pH 7.4, mean of three independent determinations ± SD; for SI (selectivity index for hAChE): ratio of IC50 hBChE towards IC50 hAChE
Chain of human recombinant AChE (hAChE; E.C. 3.1.1.7) (P22303 32-614): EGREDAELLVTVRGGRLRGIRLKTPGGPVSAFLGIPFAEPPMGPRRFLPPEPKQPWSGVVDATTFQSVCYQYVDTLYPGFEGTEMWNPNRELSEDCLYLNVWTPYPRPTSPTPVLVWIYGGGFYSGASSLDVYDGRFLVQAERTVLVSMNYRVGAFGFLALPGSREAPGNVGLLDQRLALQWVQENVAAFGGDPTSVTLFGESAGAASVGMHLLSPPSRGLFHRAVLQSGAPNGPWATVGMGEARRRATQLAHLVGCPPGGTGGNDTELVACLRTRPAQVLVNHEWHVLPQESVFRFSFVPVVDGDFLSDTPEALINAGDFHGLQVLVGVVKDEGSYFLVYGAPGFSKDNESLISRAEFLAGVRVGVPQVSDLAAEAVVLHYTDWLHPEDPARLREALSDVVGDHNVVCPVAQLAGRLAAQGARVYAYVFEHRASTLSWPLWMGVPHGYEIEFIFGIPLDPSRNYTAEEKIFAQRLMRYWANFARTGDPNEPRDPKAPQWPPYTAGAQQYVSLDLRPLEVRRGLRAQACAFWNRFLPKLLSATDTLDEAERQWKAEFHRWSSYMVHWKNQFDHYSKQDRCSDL

[2] = molecular target: human plasmatic BChE (hBChE; E.C. 3.1.1.8) (Homo sapiens, UniProt P06276); experiment: biochemical
Chain of human plasmatic BChE (hBChE; E.C. 3.1.1.8) (P06276 29-602): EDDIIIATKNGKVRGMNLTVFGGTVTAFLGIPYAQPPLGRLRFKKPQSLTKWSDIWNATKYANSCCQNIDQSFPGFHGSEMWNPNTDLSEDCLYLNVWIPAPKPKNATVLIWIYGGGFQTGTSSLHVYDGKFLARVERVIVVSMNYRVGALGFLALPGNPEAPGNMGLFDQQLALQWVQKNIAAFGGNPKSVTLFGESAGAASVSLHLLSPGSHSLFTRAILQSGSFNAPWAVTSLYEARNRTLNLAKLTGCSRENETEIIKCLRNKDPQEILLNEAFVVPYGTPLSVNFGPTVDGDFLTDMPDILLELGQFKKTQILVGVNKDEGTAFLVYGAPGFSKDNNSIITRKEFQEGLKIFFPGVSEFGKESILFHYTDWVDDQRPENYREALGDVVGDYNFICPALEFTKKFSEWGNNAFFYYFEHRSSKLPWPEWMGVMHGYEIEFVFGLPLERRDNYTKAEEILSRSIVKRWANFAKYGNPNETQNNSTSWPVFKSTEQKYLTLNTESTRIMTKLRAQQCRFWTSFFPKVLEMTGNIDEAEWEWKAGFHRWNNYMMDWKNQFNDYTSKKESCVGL

[3] = human plasmatic BChE, Ellman's method, phosphate buffer pH 7.4, mean of three independent determinations ± SD, read-out: IC50 (µM) ± SD hBChE

For `COc1ccc2nc3c(c(NCCN)c2c1)CCCC3` [Compound 3, N-(7-Methoxy-1,2,3,4-tetrahydroacridin-9-yl)ethane-1,2-diamine], the IC50 [1] was 5.32 ± 1.04 µM, the “SI (selectivity index for hAChE)” value [1] was 12.1 and the IC50 [2, 3] was 64.4 ± 10.8 µM.

In the case of `COc1ccc2nc3c(c(NCCCN)c2c1)CCCC3` [Compound 4, N-(7-Methoxy-1,2,3,4-tetrahydroacridin-9-yl)propane-1,3-diamine], the IC50 [1] is reported as 1.93 ± 0.38 µM, the “SI (selectivity index for hAChE)” value [1] is reported as 25.8 and the IC50 [2, 3] is reported as 49.8 ± 8.31 µM.

With `COc1ccc2nc3c(c(NCCCCN)c2c1)CCCC3` [Compound 5, N-(7-Methoxy-1,2,3,4-tetrahydroacridin-9-yl)butane-1,4-diamine] the IC50 [1] was 1.42 ± 0.28 µM, the “SI (selectivity index for hAChE)” value [1] was 6.5 and the IC50 [2, 3] was 9.22 ± 1.54 µM.

For `COc1ccc2nc3c(c(NCCCCCN)c2c1)CCCC3` [Compound 6, N-(7-Methoxy-1,2,3,4-tetrahydroacridin-9-yl)pentane-1,5-diamine], the IC50 [1] was 3.44 ± 0.67 µM, the “SI (selectivity index for hAChE)” value [1] was 8.6 and the IC50 [2, 3] was 29.6 ± 4.95 µM.

With `COc1ccc2nc3c(c(NCCCCCCN)c2c1)CCCC3` [Compound 7, N-(7-Methoxy-1,2,3,4-tetrahydroacridin-9-yl)hexane-1,6-diamine] the IC50 [1] was 0.21 ± 0.04 µM, the “SI (selectivity index for hAChE)” value [1] was 51.6 and the IC50 [2, 3] was 10.8 ± 1.81 µM.

For `COc1ccc2nc3c(c(NCCCCCCCN)c2c1)CCCC3` [Compound 8, N-(7-Methoxy-1,2,3,4-tetrahydroacridin-9-yl)heptane-1,7-diamine], the IC50 [1] was 0.86 ± 0.17 µM, the “SI (selectivity index for hAChE)” value [1] was 8.4 and the IC50 [2, 3] was 7.26 ± 1.21 µM.

`COc1ccc2nc3c(c(NCCCCCCCCN)c2c1)CCCC3` [Compound 9, N-(7-Methoxy-1,2,3,4-tetrahydroacridin-9-yl)octane-1,8-diamine] was tested, and the IC50 [1] was 0.47 ± 0.09 µM, the “SI (selectivity index for hAChE)” value [1] was 21.4 and the IC50 [2, 3] was 10.1 ± 1.68 µM.

For `S=C=NC12CC3CC(CC(C3)C1)C2` [Compound 10, 1-Adamantyl isothiocyanate, reference compound], the IC50 [1] was 25 ± 4.87 µM, the “SI (selectivity index for hAChE)” value [1] was 3.9 and the IC50 [2] was 96.9 ± 16.2 µM.

In the case of `COc1ccc2nc3c(c(NCCNC(=S)NC45CC6CC(CC(C6)C4)C5)c2c1)CCCC3` [Compound 11, 1-Adamantyl-3-(2-(7-methoxy-1,2,3,4-tetrahydroacridin-9-yl-amino)ethyl)thiourea 2,3-dihydroxysuccinate], the IC50 [1] is reported as 5.02 ± 0.98 µM, the “SI (selectivity index for hAChE)” value [1] is reported as 1.2 and the IC50 [2, 3] is reported as 6.02 ± 1.01 µM.

For `COc1ccc2nc3c(c(NCCCNC(=S)NC45CC6CC(CC(C6)C4)C5)c2c1)CCCC3` [Compound 12], the IC50 [1] was 0.53 ± 0.1 µM, the “SI (selectivity index for hAChE)” value [1] was 2.6 and the IC50 [2, 3] was 1.39 ± 0.23 µM.

For `COc1ccc2nc3c(c(NCCCCNC(=S)NC45CC6CC(CC(C6)C4)C5)c2c1)CCCC3` [Compound 13], the IC50 [1] was 2.04 ± 0.39 µM, the “SI (selectivity index for hAChE)” value [1] was 0.5 and the IC50 [2, 3] was 0.98 ± 0.16 µM.

For `COc1ccc2nc3c(c(NCCCCCNC(=S)NC45CC6CC(CC(C6)C4)C5)c2c1)CCCC3` [Compound 14], the IC50 [1] was 0.47 ± 0.09 µM, the “SI (selectivity index for hAChE)” value [1] was 0.2 and the IC50 [2, 3] was 0.11 ± 0.02 µM.

For `COc1ccc2nc3c(c(NCCCCCCNC(=S)NC45CC6CC(CC(C6)C4)C5)c2c1)CCCC3` [Compound 15], the IC50 [1] was 2.09 ± 0.4 µM, the “SI (selectivity index for hAChE)” value [1] was 0.2 and the IC50 [2, 3] was 0.33 ± 0.05 µM.

With `COc1ccc2nc3c(c(NCCCCCCCNC(=S)NC45CC6CC(CC(C6)C4)C5)c2c1)CCCC3` [Compound 16, 1-Adamantyl-3-(2-(7-methoxy-1,2,3,4-tetrahydroacridin-9-yl-amino)heptyl)thiourea 2,3-dihydroxy-succinate] the IC50 [1] was 3.47 ± 0.67 µM, the “SI (selectivity index for hAChE)” value [1] was 0.04 and the IC50 [2, 3] was 0.15 ± 0.02 µM.

For `COc1ccc2nc3c(c(NCCCCCCCCNC(=S)NC45CC6CC(CC(C6)C4)C5)c2c1)CCCC3` [Compound 17], the IC50 [1] was 1.62 ± 0.31 µM, the “SI (selectivity index for hAChE)” value [1] was 0.2 and the IC50 [2, 3] was 0.26 ± 0.04 µM.

For `NC12CC3CC(CC(C3)C1)C2` [amantadine, 1-adamantylamine hydrochloride, reference compound], the IC50 [2, 3] was 103 ± 17.1 µM.
